Converted amounts (≈) assume the structure as drawn.
What was measured:
Test in all cases: ≥ marks a high value that may be exact or a test limit, other limits are often not marked, values filed in µg/mL are converted to µM
[1] = system: Escherichia coli ATCC 11219
[2] = system: Klebsiella pneumoniae ATCC 10031
[3] = system: Pseudomonas aeruginosa ATCC 13388
[4] = system: Salmonella enterica subsp. enterica serovar Typhimurium ATCC 14028
[5] = system: Staphylococcus aureus ATCC 6538
[6] = system: Pseudomonas aeruginosa ATCC 47085
[7] = system: Staphylococcus aureus ATCC 25923
Alternaria alternata = system: Alternaria alternata
Botrytis cinerea = system: Botrytis cinerea
Cladosporium herbarum = system: Cladosporium herbarum
[8] = system: Clavibacter michiganensis subsp. michiganensis DSM 46294
[9] = system: Pectobacterium carotovorum subsp. carotovorum DSM 30168
[10] = system: Pseudomonas corrugata DSM 7228
[11] = system: Pseudomonas syringae pv. syringae DSM 10604
[12] = system: Pseudomonas syringae pv. tomato DC3000
[13] = system: Xanthomonas vesicatoria DSM 50861
[14] = system: Staphylococcus aureus 90857

Work on `CC[C@H](C)[C@H](NC(=O)CN)C(=O)N[C@@H](Cc1cnc[nH]1)C(=O)N[C@@H](CC(=O)O)C(=O)N[C@H](C(=O)N[C@@H](CC(C)C)C(=O)N[C@@H](CCCCN)C(=O)N[C@@H](Cc1ccc(O)cc1)C(=O)N[C@@H](C)C(=O)N[C@@H](CCCCN)C(=O)N1CCC[C@H]1C(=O)N[C@@H](CO)C(N)=O)[C@@H](C)CC` [GIHDILKYAKPS] yielded an MIC [1] of 5 µM (≈ 6.7 µg/mL), an MIC [2] of 10 µM (≈ 13.4 µg/mL) and an MIC [3] of 15 µM (≈ 20.1 µg/mL). The MIC [4] was 10 µM (≈ 13.4 µg/mL) and the MIC [5] was 10 µM (≈ 13.4 µg/mL).

In the case of `CC[C@H](C)[C@H](NC(=O)CN)C(=O)N[C@@H](CCCN=C(N)N)C(=O)N[C@@H](CC(=O)O)C(=O)N[C@H](C(=O)N[C@@H](CC(C)C)C(=O)N[C@@H](CCCCN)C(=O)N[C@@H](Cc1ccc(O)cc1)C(=O)NCC(=O)N[C@@H](CCCCN)C(=O)N1CCC[C@H]1C(=O)N[C@@H](CO)C(N)=O)[C@@H](C)CC` [GIRDILKYGKPS], the MIC [1] is reported as 5 µM (≈ 6.73 µg/mL), the MIC [2] is reported as 5 µM (≈ 6.73 µg/mL) and the MIC [3] is reported as 20 µM (≈ 26.9 µg/mL). For the same molecule, the MIC [4] was 5 µM (≈ 6.73 µg/mL) and the MIC [5] was 10 µM (≈ 13.5 µg/mL).

Molecule `CC[C@H](C)[C@H](NC(=O)[C@H](CCCN=C(N)N)NC(=O)[C@H](CC(C)C)NC(=O)[C@H](Cc1ccccc1)NC(=O)[C@H](CCC(=O)O)NC(=O)[C@H](CCCCN)NC(=O)[C@H](Cc1c[nH]c2ccccc12)NC(=O)[C@H](CCCCN)NC(=O)[C@H](Cc1c[nH]c2ccccc12)NC(=O)CNC(=O)[C@H](Cc1c[nH]c2ccccc12)NC(=O)[C@H](CCCCN)NC(=O)[C@H](Cc1c[nH]c2ccccc12)NC(=O)[C@H](CC(C)C)NC(=O)[C@H](CC(C)C)NC(=O)CN)C(=O)N[C@H](C(=O)NCC(=O)N[C@@H](Cc1ccc(O)cc1)C(N)=O)C(C)C` [GLLWKWGWKWKEFLRIVGY] has an MIC [6] of at least 415 µM and an MIC [7] of over 415 µM.

With `CC(C)C[C@H](NC(=O)[C@H](C)NC(=O)[C@H](CCCN=C(N)N)NC(=O)[C@H](CCCCN)NC(=O)[C@H](CC(C)C)NC(=O)[C@H](C)NC(=O)[C@H](CCCN=C(N)N)NC(=O)[C@H](C)NC(=O)[C@H](C)NC(=O)[C@H](CCCCN)NC(=O)[C@H](CCCCN)NC(=O)[C@@H](N)CCCCN)C(N)=O` [KKKAARALKRAL] the MIC (Alternaria alternata) was at least 73.9 µM, the MIC (Botrytis cinerea) was at least 73.9 µM and the MIC (Cladosporium herbarum) was 29.5 µM (≈ 40 µg/mL). The MIC [8] was 29.5 µM (≈ 40 µg/mL), the MIC [9] was 29.5 µM (≈ 40 µg/mL) and the MIC [10] was 29.5 µM (≈ 40 µg/mL). It also gave an MIC [11] of 29.5 µM (≈ 40 µg/mL), an MIC [12] of 7.39 µM (≈ 9.99 µg/mL) and an MIC [13] of 29.5 µM (≈ 40 µg/mL).

`CC[C@H](C)[C@H](NC(=O)[C@H](CC(C)C)NC(=O)[C@@H](N)CC(C)C)C(=O)N[C@@H](CCCN=C(N)N)C(=O)N[C@@H](C)C(=O)N[C@@H](C)C(=O)N[C@@H](CCCCN)C(=O)N[C@@H](CCCCN)C(=O)N[C@@H](Cc1ccccc1)C(=O)N[C@H](C(=O)N[C@@H](CCCCN)C(=O)N[C@@H](CCCCN)C(N)=O)[C@@H](C)CC` [LLIRAAKKFIKK] was tested, and the MIC (Alternaria alternata) was at least 70 µM, the MIC (Botrytis cinerea) was at least 70 µM and the MIC (Cladosporium herbarum) was 28 µM (≈ 40 µg/mL). It also gave an MIC [8] of 28 µM (≈ 40 µg/mL), an MIC [9] of 28 µM (≈ 40 µg/mL) and an MIC [10] of 28 µM (≈ 40 µg/mL). The MIC [11] was 28 µM (≈ 40 µg/mL), the MIC [12] was 28 µM (≈ 40 µg/mL) and the MIC [14] was at least 62.5 µM. The MIC [13] was 28 µM (≈ 40 µg/mL).

`CC(C)C[C@H](NC(=O)[C@H](C)NC(=O)[C@H](CCCCN)NC(=O)[C@H](CCCCN)NC(=O)[C@H](CC(C)C)NC(=O)[C@H](Cc1ccccc1)NC(=O)[C@H](CCCN=C(N)N)NC(=O)[C@@H](N)CC(C)C)C(=O)N[C@@H](CCCCN)C(=O)N[C@@H](CCCCN)C(=O)N[C@@H](CC(C)C)C(=O)N[C@@H](Cc1ccccc1)C(N)=O` [LRFLKKALKKLF] was tested, and the MIC [8] was 0.166 µM (≈ 0.25 µg/mL), the MIC [9] was 0.664 µM (≈ 0.999 µg/mL) and the MIC [10] was 0.332 µM (≈ 0.5 µg/mL). It also gave an MIC [11] of 0.0664 µM (≈ 0.0999 µg/mL), an MIC [12] of 0.332 µM (≈ 0.5 µg/mL) and an MIC [14] of 0.625 µM (≈ 0.94 µg/mL). The MIC [13] was 0.166 µM (≈ 0.25 µg/mL).

From DBAASP
